{"source": "ChEMBL document CHEMBL1127288", "about": "“Derivatives of D-penicillamine as potential antiarthritic agents” (1994)", "type_in_all_cases": "functional", "key": {"Rattus norvegicus [1]": {"system": "Rattus norvegicus", "experiment": "Cartilage space narrowing was measured radiographically after 42 days initial immunization with type II collagen in rats at a dose of 200 mg/kg"}, "Rattus norvegicus [2]": {"system": "Rattus norvegicus", "experiment": "Erosions of tarsal bones measured radiographically after 42 days initial immunization with type II collagen in rats at a dose of 200 mg/kg"}, "Rattus norvegicus [3]": {"system": "Rattus norvegicus", "experiment": "Paw diameter measured with a micrometer caliper after 42 days initial immunization with type II collagen in rats at a dose of 200 mg/kg"}}, "data": [{"smiles": "C[C@]12C=CC(=O)C=C1CCC1[C@@H]2[C@@H](O)C[C@@]2(C)[C@H]1CC[C@]2(O)C(=O)CO", "note": "(single isomer, unassigned) [PREDNISOLONE]", "values": [{"measurement": "Cartilage space", "setting": "Rattus norvegicus [1]", "result": 3.27}, {"measurement": "Erosions", "setting": "Rattus norvegicus [2]", "result": 3.5}, {"measurement": "Mean paw diameter", "setting": "Rattus norvegicus [3]", "result": 7.92, "unit": "mm"}]}, {"smiles": "COc1ccc2c(c1)c(CC(=O)O)c(C)n2C(=O)c1ccc(Cl)cc1", "note": "[INDOMETHACIN]", "values": [{"measurement": "Cartilage space", "setting": "Rattus norvegicus [1]", "result": 2.94}, {"measurement": "Erosions", "setting": "Rattus norvegicus [2]", "result": 2.94}, {"measurement": "Mean paw diameter", "setting": "Rattus norvegicus [3]", "result": 8, "unit": "mm"}]}, {"smiles": "CC(C)(S)[C@@H](N)C(=O)O", "note": "[PENICILLAMINE]", "values": [{"measurement": "Cartilage space", "setting": "Rattus norvegicus [1]", "result": 2.72}, {"measurement": "Erosions", "setting": "Rattus norvegicus [2]", "result": 2.83}, {"measurement": "Mean paw diameter", "setting": "Rattus norvegicus [3]", "result": 8.89, "unit": "mm"}]}, {"smiles": "CCCCC1C(=O)N(c2ccccc2)N(c2ccccc2)C1=O", "note": "[PHENYLBUTAZONE]", "values": [{"measurement": "Cartilage space", "setting": "Rattus norvegicus [1]", "result": 2.86}, {"measurement": "Erosions", "setting": "Rattus norvegicus [2]", "result": 3.33}, {"measurement": "Mean paw diameter", "setting": "Rattus norvegicus [3]", "result": 8.42, "unit": "mm"}]}]}
